These results are taken from paper PMC5374710, “Discovery of the first dual GSK3β inhibitor/Nrf2 inducer. A new multitarget therapeutic strategy for Alzheimer’s disease” (Scientific Reports, 2017).

Values joined by “and” are separate entries in the source; they are usually repeats but may differ in a detail not shown here. Equal values may be shown once.

Data set [1] deals with SH-SY5Y cells. In words: Cytotoxicity in SH-SY5Y neuroblastoma cell line (MTT). The settings on record: 24 h.
Protocol: Viability was measured as MTT reduction in presence of increasing concentrations of derivatives. Values are expressed as LD50 calculated from dose-response curves of four different concentrations.
Cells were cultured in 48-well (SH-SY5Y, 1x10^5 cells per well) or 96-well plates (HepG2, 1x10^5 cells per well) for 24 h. […] Control cells were incubated with the same concentration of DMSO (0.1 % final concentration) without any drug.
The test system of another data set is primary rat glial cells. In words: Nitrite production in LPS-stimulated primary glial cultures (Griess). The class given is cell-based. To be noted: Glial cell, 24 h pre-incubation, 18 h co-incubation with LPS 1 μg/mL, read-out: IC50 nitrite reduction. The text has this:
Therefore, we envisaged the study of compounds 5a–t as potential anti-inflammatory agents. We used primary rat glial cells treated with lipopolysaccharide (LPS) to induce the production of nitrites and ROS as a model of glial activation. Nitrite production is directly proportional to the expression of the iNOS, that is over-expressed when LPS activates glial cells. ROS production is proportional to NOX activation after stimulation with LPS. Results are summarized in Table 2 as IC50s of nitrite production reduction and ROS production reduction. We have included sulforaphane as control in all experiments (see the Supporting Information).
Glial cells were pre-incubated with increasing concentrations of compounds for 24 hours. Then, treatments were removed and cells were incubated with LPS (1 μg/mL) alone or in presence of each compound at the desired concentration. Nitrite production was assessed 18 hours later by modified Griess assay. Briefly, samples (150 μl) were mixed with dapsone (75 μl) and NEDA (75 μl), and the mixture was incubated at room temperature for 5 min. Light absorption was measured at 550 nm in a microplate reader (Labtech, Offenburg, Germany). All data were normalized to basal nitrite production, considering this value as 100% of nitrite production. IC50 values were calculated from dose-response curves represented as percentage of nitrite production reduction induced by the different concentrations of each compound.
Mixed glial cultures were obtained from cerebral cortex of 2-5 day-old Sprague-Dawley rats. After removal of blood vessels and meninges, the forebrains were dissociated in DMEM/F12 medium. After mechanical dissociation, cells were plated (3x10^5 cells/ml) in DMEM/F12 medium with 20% fetal bovine serum (FBS) and 1 % penicillin/streptomycin (10,000 units), at 37 °C and in a 5 % CO2-supplemented air atmosphere. After 5 days, medium was substituted by DMEM/F12 medium with 10 % FBS. Cells were cultured for 7-10 days before treatment.
Primary rat glial cells were treated with compounds 5a-t at increasing concentrations (3, 10, 30 and 60 µM) during 24 h. Thereafter, treatments were removed and glial cells were co-incubated with increasing concentrations of each compound and LPS (1 µg/mL) for 18 h more. At the end of this period, supernatant was collected and the presence of nitrites was analyzed by the Griess method with modifications.^20 Each plate included non-treated cells as basal nitrite production, sulforaphane (SFN, 10 µM) as positive control. Briefly, samples (150 µl) were mixed with DAPSONE (75 µl) and NEDA (75 µl), and the mixture was incubated at room temperature for 5 min. Light absorption was measured at 550 nm in a microplate reader (Labtech, Offenburg, Germany). All data were normalized to basal nitrite production, considering this value as 100% of nitrite production. EC50 values were calculated from dose-response curves represented as percentage of nitrite production reduction induced by the different concentrations of each compound. Concentration response curves were fitted by non-linear regression analysis of individual concentration-response curves using GraphPad Prism software (San Diego, CA, USA). EC50 values are expressed as mean ± SEM of four different experiments in triplicate.
On the technique in general: Griess reagent forms a coloured azo dye with nitrite.

Data set [2] concerns SH-SY5Y cells. As to the kind of experiment: Neuroprotection against rotenone/oligomycin A (R/O), MTT. The settings on record: 1 μM, 24 h pre-incubation, 24 h co-incubation with rotenone/oligomycin A 30/10 μM. It counts as cell-based. As to the method:
Figure 5 Compounds 5a–t exert neuroprotection in in vitro models of AD. […] Then, treatments were removed and cells were co-incubated with each treatment and okadaic acid for 18 h or R/O for 24 h. Cell viability was measured by the MTT reduction assay. Values are expressed as mean ± SEM of five independent experiments in triplicate. ***p < 0.001; **p < 0.01 respect to toxic stimuli treated cells, considered as 0% of protection.
As stated in the Introduction, oxidative stress is considered one of the main causes of neuronal death in AD. Therefore, we were interested in evaluating the potential antioxidant activity of compounds 5a–t in a model of oxidative stress and energy depletion, which in turn increase cell death. For this purpose, we selected the combination of rotenone (30 μM) and oligomycin A (10 μM) (R/O) to induce neurotoxicity as a model system[23][40] to evaluate the potential neuroprotective activity of the compounds. Melatonin, a well-known antioxidant natural compound, was included as a positive control.
(§1) A pre- and co-incubation protocol was followed. Cells were pre-incubated with the corresponding compound at 1 μM in neuroblastoma cells culture medium. After 24 h, medium was removed and replaced with 1% FBS neuroblastoma culture media containing the corresponding compound (1 μM) and the toxic stimuli, the mixture of rotenone and oligomycin A (30 μM/10 μM respectively) or okadaic acid at 20 nM. Cells were co-incubated for further 24 h with the rotenone and oligomycin A solution or 18 h with the okadaic acid solution. Control cells were incubated with the same amount of DMSO without any drug. After the co-incubation period, cell viability was assessed by the MTT-reduction method.
as §1, with “A pre” for “A pre-”, “1 µM” for “1 μM”, “compound at 1 µM” for “compound (1 μM)”, “stimuli, namely a” for “stimuli, the”, “(30 µM / 10 µM” for “(30 μM/10 μM”, “drug. […]” for “drug.”
The percentage of protection was calculated as follows: the percentage of cell survival obtained with the toxic stimuli-treated cells subtracted to 100 was normalized to 100 % of cell death. The percentage of protection was obtained by subtracting the percentage of cell death in presence of the tested compound to 100%.

The next data set deals with T1, GSK3β (Homo sapiens, UniProt P49841).
T1 construct: purchased Promega V1991
In words: GSK3β inhibition, luminescence Kinase-Glo assay. It counts as biochemical. The settings on record: for IC50: four concentrations 0.1, 1, 10, 30 μM, ATP 1 μM, 1 h; for Ki: calculated from IC50 by Cheng-Prusoff equation, Km ATP 2.345 µM, read-out: Ki (apparent equilibrium dissociation constant).

Data set [3] concerns SH-SY5Y cells. As to the kind of experiment: Neuroprotection against okadaic acid (tau hyperphosphorylation), MTT. The class given is cell-based. The settings on record: 1 μM, 24 h pre-incubation, 18 h co-incubation with OA 20 nM.

As usually defined, the IC50 is the midpoint of a concentration-inhibition curve.

T1 sequence (P49841 whole entry): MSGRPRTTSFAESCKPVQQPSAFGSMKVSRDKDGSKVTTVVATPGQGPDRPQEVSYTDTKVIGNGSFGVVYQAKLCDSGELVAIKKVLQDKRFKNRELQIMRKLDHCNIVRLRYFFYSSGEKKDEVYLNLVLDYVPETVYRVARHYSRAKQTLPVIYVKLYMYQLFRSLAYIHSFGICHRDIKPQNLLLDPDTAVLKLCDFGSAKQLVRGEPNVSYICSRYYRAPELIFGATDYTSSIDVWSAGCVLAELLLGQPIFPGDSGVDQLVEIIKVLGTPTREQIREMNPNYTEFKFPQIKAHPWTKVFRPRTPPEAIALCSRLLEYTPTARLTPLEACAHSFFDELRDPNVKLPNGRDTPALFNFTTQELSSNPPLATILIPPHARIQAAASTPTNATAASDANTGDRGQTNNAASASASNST
Protocol for GSK3β: GSK3β inhibitory activity was evaluated using the method developed by Baki[66], with modifications. Compounds were dissolved in assay buffer, containing 40 mM Tris (pH 7.5), 20 mM MgCl2, 0.1 mg/ml BSA (bovine serum albumin) and 50 μM dithiothreitol (DTT) at the desired concentrations. Firstly, 10 μl of enzyme (10 ng) and 10 μl of each compound were mixed for 30 min. Then, 20 μl of a mixture of ATP (1 μM) and GSK3β peptidic substrate were added to each well. The mixture was incubated for 60 min at 30 °C. Thereafter, the remaining ATP concentration was measured with the Kinase-Glo system following instructions from the supplier. Luminescence was measured in an Orion II microplate luminometer (Berthold, Germany) as relative light units (RLU). […] IC50 values were calculated by non-linear regression analysis of individual concentration-response curves using GraphPad Prism 5.0 software (San Diego, CA, USA).
The ability of the compounds to inhibit GSK3β was evaluated using the method developed by Baki^9 with some modifications. The tested compounds were dissolved in assay buffer, containing 40 mM Tris (pH 7.5), 20 mM MgCl2, 0.1 mg/ml BSA (bovine serum albumin) and 50 µM dithiothreitol (DTT), to achieve final reaction concentrations of 0.1, 1, 10 and 30 µM. […] The GSK3β inhibition assay was performed in white 96-well plates, in duplicates. Firstly, 10 µl of enzyme (10 ng) were added to each well, followed by 10 µl of the compounds at the desired concentration. After 30 minutes, 20 µl of a mixture of ATP and GSK3β peptidic substrate were added to each well, achieving a final concentration of 1 µM of ATP and 25 of µM peptidic substrate. The mixture was incubated at 30 °C for 60 minutes. Once the reaction was finished, the remaining ATP concentration was measured by adding 40 µl/well of Kinase-Glo reagent. The luminescence was measured in an Orion II microplate luminometer (Berthold, Germany) as relative light units (RLU). The luminescence recorded is proportional to the amount of ATP present in each well.
Apparent Ki for each compound were calculated from GSK3β Km value for ATP, applying the Cheng-Prusoff equation^10,11 in its simplified form: Ki = IC50/(1+([S]/Km)), in which S refers to the ATP concentration and Km is the Michaelis constant of the substrate for GSK3β.

Regarding `Cc1[nH]nc2c1C(c1cccnc1)C(C#N)=C(N)O2` (stereo not drawn) [Compound 5s, 6-Amino-3-methyl-4-(pyridin-3-yl)-2,4-dihydropyrano[2,3-c]pyrazole-5-carbonitrile], in the data set with SH-SY5Y cells [1], the “SH-SY5Y LD50” value is given as > 100 µM. In addition, the IC50 in the data set with primary rat glial cells was 7.23 ± 1.1 µM; against GSK3β, > 30 µM. Moreover, in the data set with SH-SY5Y cells [2], the “Percentage of protection against R/O toxicity” value was 57.9%.
As to `Cc1n[nH]c2c1C(c1ccccc1Cl)C(C#N)=C(N)O2` (stereo not drawn) [Compound 5i, 6-Amino-4-(2-chlorophenyl)-3-methyl-2,4-dihydropyrano[2,3-c]pyrazole-5-carbonitrile], the “SH-SY5Y LD50” value in the data set with SH-SY5Y cells [1] is recorded as > 100 µM. In the data set on primary rat glial cells, the IC50 is > 60 µM.
Take `Cc1n[nH]c2c1C(c1ccco1)C(C#N)=C(N)O2` (stereo not drawn) [Compound 5q, 6-Amino-4-(furan-2-yl)-3-methyl-2,4-dihydropyrano[2,3-c]pyrazole-5-carbonitrile]: the “SH-SY5Y LD50” value with SH-SY5Y cells [1] is > 100 µM. The IC50 in the data set with primary rat glial cells amounted to 17.5 ± 2.45 µM. At GSK3β, the Ki is 10.4 µM and it took 14.8 ± 4.8 µM to reach half-maximal inhibition (IC50).
For the compound `Cc1n[nH]c2c1C(c1ccc(F)cc1)C(C#N)=C(N)O2` (stereo not drawn) [Compound 5h, 6-Amino-4-(4-fluorophenyl)-3-methyl-2,4-dihydropyrano[2,3-c]pyrazole-5-carbonitrile], the “SH-SY5Y LD50” value with SH-SY5Y cells [1] is > 100 µM. For the same compound, in the data set on primary rat glial cells, the concentration for half-maximal inhibition (IC50) is 11.3 ± 1.15 µM. In addition, at GSK3β, the Ki is 12.5 µM and half-maximal inhibition (IC50) was put at 17.9 ± 1.5 µM.
For the compound `COc1ccccc1C1C(C#N)=C(N)Oc2n[nH]c(C)c21` (stereo not drawn) [Compound 5b, 6-Amino-4-(2-methoxyphenyl)-3-methyl-2,4-dihydropyrano[2,3-c]pyrazole-5-carbonitrile], the “SH-SY5Y LD50” value in the data set on SH-SY5Y cells [1] is listed as > 100 µM. In addition, the IC50 in the data set on primary rat glial cells amounted to 43.6 ± 6.45 µM. Also, the “Percentage of protection against R/O toxicity” value with SH-SY5Y cells [2] was 39.1%. Further, at GSK3β, the Ki was 11.5 µM and half-maximal inhibition (IC50) required 16.4 ± 1.8 µM.
Take `Cc1ccc(C2C(C#N)=C(N)Oc3[nH]nc(C)c32)cc1` (stereo not drawn) [Compound 5g, 6-Amino-3-methyl-4-(4-methylphenyl)-2,4-dihydropyrano[2,3-c]pyrazole-5-carbonitrile]: the “SH-SY5Y LD50” value in the data set on SH-SY5Y cells [1] is > 100 µM. For the same compound, the IC50 in the data set on primary rat glial cells came to 22.3 ± 3.82 µM. Also, at GSK3β, the Ki was 12.3 µM and it took 17.5 ± 1.9 µM to reach half-maximal inhibition (IC50).
In the case of `Cc1[nH]nc2c1C(c1ccccc1)C(C#N)=C(N)O2` (stereo not drawn) [Compound 5a, 6-Amino-3-methyl-4-phenyl-2,4-dihydropyrano[2,3-c]pyrazole-5-carbonitrile], in the data set on SH-SY5Y cells [1], the “SH-SY5Y LD50” value is reported as > 100 µM. The IC50 in the data set with primary rat glial cells is > 60 µM; on GSK3β it was > 30 µM. Moreover, the “Percentage of protection against okadaic acid toxicity” value with SH-SY5Y cells [3] is on record as 27.7%.
As for `Cc1cccc(C2C(C#N)=C(N)Oc3n[nH]c(C)c32)c1` (stereo not drawn) [Compound 5f, 6-Amino-3-methyl-4-(3-methylphenyl)-2,4-dihydropyrano[2,3-c]pyrazole-5-carbonitrile], the “SH-SY5Y LD50” value in the data set on SH-SY5Y cells [1] is given as > 100 µM. In addition, the IC50 in the data set with primary rat glial cells amounted to 13.4 ± 1.44 µM. Also, the “Percentage of protection against okadaic acid toxicity” value with SH-SY5Y cells [3] was “over 50%”. At GSK3β, the Ki was 15 µM and the IC50 worked out at 21.4 ± 4.6 µM.
As to `Cc1[nH]nc2c1C(c1ccc([N+](=O)[O-])cc1)C(C#N)=C(N)O2` (stereo not drawn) [Compound 5p, 6-Amino-3-methyl-4-(4-nitrophenyl)-2,4-dihydropyrano[2,3-c]pyrazole-5-carbonitrile], the “SH-SY5Y LD50” value in the data set on SH-SY5Y cells [1] is on record as > 100 µM. Further, the IC50 in the data set with primary rat glial cells came to 26.7 ± 4.86 µM. At GSK3β, the Ki was 11.4 µM and half-maximal inhibition (IC50) required 16.3 ± 2.8 µM.
As to `Cc1[nH]nc2c1C(c1ccccc1[N+](=O)[O-])C(C#N)=C(N)O2` (stereo not drawn) [Compound 5n, 6-Amino-3-methyl-4-(2-nitrophenyl)-2,4-dihydropyrano[2,3-c]pyrazole-5-carbonitrile], the “SH-SY5Y LD50” value with SH-SY5Y cells [1] is reported as > 100 µM. In addition, the IC50 in the data set with primary rat glial cells is 15.8 ± 5.23 µM; against GSK3β it was 3.9 µM and 3.89 µM. For the same compound, the “Percentage of protection against okadaic acid toxicity” value in the data set with SH-SY5Y cells [3] is on record as 34.7%. For the same compound, the Ki on GSK3β is 2.72 µM.
Consider `Cc1ccccc1C1C(C#N)=C(N)Oc2[nH]nc(C)c21` (stereo not drawn) [Compound 5e, 6-Amino-3-methyl-4-(2-methylphenyl)-2,4-dihydropyrano[2,3-c]pyrazole-5-carbonitrile], for which the “SH-SY5Y LD50” value in the data set with SH-SY5Y cells [1] is listed as > 100 µM. For the same compound, the IC50 in the data set with primary rat glial cells is 34.3 ± 3.84 µM; against GSK3β, > 30 µM.
For the compound `Cc1n[nH]c2c1C(c1ccc(Cl)cc1)C(C#N)=C(N)O2` (stereo not drawn) [Compound 5k, 6-Amino-4-(4-chlorophenyl)-3-methyl-2,4-dihydropyrano[2,3-c]pyrazole-5-carbonitrile], the “SH-SY5Y LD50” value in the data set with SH-SY5Y cells [1] is on record as > 100 µM. For the same compound, the IC50 turned out to be 26 ± 2.74 µM in the data set on primary rat glial cells and 6.29 ± 2.6 µM at GSK3β. Further, on GSK3β, the Ki was 4.41 µM.
With `Cc1[nH]nc2c1C(c1cccc(Cl)c1)C(C#N)=C(N)O2` (stereo not drawn) [Compound 5j, 6-Amino-4-(3-chlorophenyl)-3-methyl-2,4-dihydropyrano[2,3-c]pyrazole-5-carbonitrile], the “SH-SY5Y LD50” value with SH-SY5Y cells [1] is reported as > 100 µM. Moreover, the IC50 with primary rat glial cells was 5.11 ± 0.65 µM. Further, on GSK3β, the Ki is 14.4 µM and the IC50 was found to be 20.5 ± 8 µM.
Turning to `Cc1[nH]nc2c1C(c1cccc([N+](=O)[O-])c1)C(C#N)=C(N)O2` (stereo not drawn) [Compound 5o, 6-Amino-3-methyl-4-(3-nitrophenyl)-2,4-dihydropyrano[2,3-c]pyrazole-5-carbonitrile], the “SH-SY5Y LD50” value with SH-SY5Y cells [1] is reported as > 100 µM. Also, the IC50 in the data set on primary rat glial cells was found to be 40.8 ± 2.23 µM; at GSK3β, 7.2 ± 1.6 µM. Also, the “Percentage of protection against okadaic acid toxicity” value with SH-SY5Y cells [3] turned out to be 48%. Further, at GSK3β, the Ki is 5.04 µM.
In the case of `Cc1n[nH]c2c1C(c1cccs1)C(C#N)=C(N)O2` (stereo not drawn) [Compound 5r, 6-Amino-3-methyl-4-(thiophen-2-yl)-2,4-dihydropyrano[2,3-c]pyrazole-5-carbonitrile], the “SH-SY5Y LD50” value in the data set on SH-SY5Y cells [1] is given as > 100 µM. The results for the IC50 in the data set on primary rat glial cells and on GSK3β were > 60 µM and > 30 µM, respectively.
